The subject of one assay is DENV3. Briefly: Cell-based flaviviral immunodetection assay (CFI), DENV3. As to conditions: Dengue virus, BHK-21; DENV3, BHK21 cells, 48 hours.
For assay [1], the system named is DENV2 in THP-1 human monocytes. Briefly: ADE infection of human monocytes (THP-1), plaque assay. The class given is cell-based. As to conditions: Dengue virus, THP-1, DENV2 + 4G2 antibody, 48 hours, read-out: EC50, suppression of viral replication under ADE condition. The protocol:
The activity of celgosivir in infected human monocytes, one of the primary circulating cell types infected by dengue virus, was examined, THP-1 cells were grown in RPMI-1640 maintenance medium containing 10% fetal calf serum and 1% Penicillin-streptomycin and cultured in 37° C. incubator supplemented with 5% CO2. For ADE infection in THP-1 cells, virus (DENV2, MOI-10) was mixed with sub-neutralizing concentration of humanized 4G2 monoclonal antibody (0.05 μg/0.5 ml) and allowed to incubate on ice for 1 hr in the serum free medium, to allow immune complex formations. The immune complex was then added on to THP-1 (1×10^5) cells per well in a 24 well plate and further incubated for 2 hours at 37° C. incubator. An excess unbound immune complex was then removed by spinning cells at 1000 rpm for 5 min and then cells were supplemented with complete growth maintenance medium. For drug testing in the ADE condition, cells were mock (untreated) or celgosivir-treated for 48 hours, and finally media supernatant was collected for plaque assay analysis.

For a further assay, the system named is DENV2 infected BHK21. Briefly: Fluorescence microscopy for NS1 in infected BHK21 cells. The class given is cell-based, dengue virus. As to conditions: 20 μM, 24 hr. As for the experimental part: BHK21 cells were infected with DENV2 and treated with 20 μM celgosivir or saline. After 24 hr incubation, cells were stained with nuclear stain diamidino-2-phenylindole (DAPI) or with a MAb against NS1 in conjunction with a secondary antibody conjugated with Alexa-488 (green), then examined by fluorescent microscopy for the presence of NS1, a marker for viral replication.

For assay [2], the system named is gastrointestinal α-amylase, sucrase, maltase. As to conditions: cited from earlier work.
For a further assay, the system named is DENV1. Briefly: Cell-based flaviviral immunodetection assay (CFI), DENV1. As to conditions: Dengue virus, BHK-21; DENV1, BHK21 cells, 48 hours.

“Also recorded” adds a separate entry of the source.

`CCCC(=O)O[C@H]1CN2CC[C@H](O)[C@@H]2[C@@H](O)[C@@H]1O.Cl` [Celgosivir, celgosivir]: the EC50 (as a rule, the midpoint of the concentration-response curve) with DENV3 is 680 ± 20 nM; in assay [1] it was 500 nM; in the assay with DENV1, 650 ± 160 nM. Moreover, the “NS1 / viral replication by immunofluorescence” value in the assay on DENV2 infected BHK21 is reported as “almost complete suppression of viral replication; also recorded: very low levels of NS1”. Also, the “inhibition of gastrointestinal enzymes, comparison” value in assay [2] is listed as “weaker inhibitor than castanospermine”.

Values taken from patent publication US10517854B2, “Dosing regiments of celgosivir for the treatment of dengue” (60 Degrees Pharmaceuticals, LLC, priority 2013, dated 2019).
